According to patent US20040241766A1, “Carbamazepine assay” (priority 2003, published 2004):
“And” between values parts separate entries of the source, which are not always exact repeats. Equal entries are not always repeated.

Tests used:
avidin = molecular target: T1, avidin (Gallus gallus, UniProt P02701); assay: HABA assay: displacement of HABA from avidin; assay type: binding
T1 construct: purchased Pierce Chemical Company
Description: In order to determine whether CBZ can bind to avidin, a solution of 10 mg/L CBZ dissolved in methanol was used in a HABA assay (Pierce Chemical Company, Pittsburgh, Pa.). When [2-(4′-hydroxyazobenzene) benzoic acid (HABA) is added in excess of avidin (Pierce Chemical Company, Pittsburgh, Pa.), an absorption at 500 nm is observed and a change in color occurs from yellow to red. This absorption is decreased proportionately when biotin is added since biotin displaces the HABA dye due to its higher affinity for avidin. The assay can be performed in a single cuvette by noting the A500 of the avidin-HABA solution before and after addition of the biotin-containing sample; the change in absorbance can then be related to the amount of biotin in the sample by using the extinction coefficient of the complex.
This change in absorbance is equivalent to 0.17 μmoles biotin-competing capacity of CBZ/ml reaction mixture. This amount was present according to a calculation equation described by the manufacturer.

[1] = Serum CBZ concentration in CBZ-treated rats (competitive avidin assay vs HPLC with UV detection); assay type: in vivo; details: rat serum, 3.75 g CBZ/kg diet for 68 days, Serum #1-#3
Description: Biotinylated bovine serum albumin (BSA) was synthesized by mixing 50 mL of 10 g/L BSA in ice-cold 0.1 mol/L NaHCO3 (pH 7.5) with 5 mL of a 12 g/L N-hydroxysuccinimide ester (NHS-biotin) in dimethyl sulfoxide overnight at 4° C. The mixture was dialyzed for 48 h with gentle stirring at 4° C.
A flat bottom 96-well microtiter plate (Nunc Maxisorp, Fisher Scientific, Pittsburgh, Pa.) was coated with 200 μL of a 1:2 dilution of biotinylated BSA in coating buffer (50 mmol/L bicarbonate, pH 9.0) and incubated at 4° C. for at least 1 h (up to 48 h).
A 10 g/L stock of CBZ was made by dissolving CBZ in methanol and then this was diluted 1:2 in Hepes buffer (0.1 mol/L Hepes, 1 mol/L NaCl, pH 7.0) to make a concentration of 5 g/L. 5 μL of this stock was diluted in 295 μL serum (collected immediately after a rat had been killed by exsanguination and whole blood was allowed to clot 10 min before centrifugation at 10,000× g for 10 min, and serum recovered). […]
The coated flat bottom plate was washed three times with 0.05% (v/v) tween-20 and before the wells dried out, 100 μL of the contents of the U-bottom plate were added to the flat bottom plate and incubated for 45 min—up to 4 h. […] After 45 min, 50 μL of 2 mol/L H2SO4 was added to the wells and the absorbance was measured at 490-650 nm in a plate reader spectrophotometer (Molecular Devices, Sunnyvale, Calif.). […]

[2] = humans, serum concentration; cited from earlier work

T1 sequence (P02701 25-152): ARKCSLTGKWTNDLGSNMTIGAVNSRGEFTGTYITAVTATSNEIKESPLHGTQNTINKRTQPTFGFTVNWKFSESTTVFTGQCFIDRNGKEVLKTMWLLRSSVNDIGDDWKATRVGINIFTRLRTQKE

## NC(=O)N1c2ccccc2C=Cc2ccccc21 [CBZ, 5-carbamoyl-5H-dibenz[b,f]azepine]
avidin; 10 mg/L CBZ in methanol added to avidin-HABA solution
  change in absorbance at 500 nm: 0.5633
avidin; HABA displacement
  binding to avidin relative to HABA: binds more tightly to avidin than does HABA
avidin; calculated from change in absorbance by manufacturer's equation, 10 mg/L CBZ
  biotin-competing capacity of CBZ/ml reaction mixture: 0.17 µmol
[1]; HPLC with UV detection
  serum CBZ concentration, HPLC: 4.7 mg/L and 3.3 mg/L
[1]; avidin-HRP/biotinylated BSA competitive assay
  serum CBZ concentration, Competitive Assay: 4.8 mg/L and 3.8 mg/L and 3.0 mg/L
[2]
  therapeutic range: 4 to 12 mg/L
